Data on nine molecules can be found in the supplement of paper PMC10477900.

Assay [1] has as its system HCT116. Nature of the assay: viability inhibition vs untreated; higher = more cytotoxic. The settings on record: 72 h.
Assay [2] has as its system HCT116. To be noted: 72 h. Here is the method:
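HCT116 control and MTA1-KO (CRISPR) HCT116 cells were seeded in 384-well plates (800 cells/well), treated 16 h later with 237 metabolism-related anticancer drugs at five doses (10 uM, 2 uM, 400 nM, 80 nM, 16 nM) for 72 h, two replicates; viability by CCK8. Values are % inhibition of viability relative to untreated cells, plus fitted IC50.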

Each structure is given as a SMILES string.

By IC50 is commonly meant the concentration that gives 50% inhibition. `CC[C@H](C)C(=O)O[C@H]1CCC=C2C=C[C@H](C)[C@H](CC[C@@H]3C[C@@H](O)CC(=O)O3)[C@H]21` [Mevastatin]: the viability inhibition in the assay on HCT116 [1] (genotype: MTA1-KO, 16 nM) is -20.4%; with HCT116 [1] (genotype: MTA1-KO, 80 nM), -7.46%; in the assay with HCT116 [1] (genotype: MTA1-KO, 400 nM), -17.3%; in the assay with HCT116 [1] (genotype: MTA1-KO, 2000 nM), -17.5%; in the assay on HCT116 [1] (genotype: MTA1-KO, 10000 nM), -22.4%; with HCT116 [1] (genotype: control, 16 nM), -7.08%. The viability inhibition was found to be 9.09% in the assay with HCT116 [1] (genotype: control, 80 nM); 5.14% in the assay with HCT116 [1] (genotype: control, 400 nM); 1.68% with HCT116 [1] (genotype: control, 2000 nM); 23.8% in the assay with HCT116 [1] (genotype: control, 10000 nM). In addition, the IC50 with HCT116 [2] (genotype: MTA1-KO) and in the assay with HCT116 [2] (genotype: control) was more than 10 µM each time.
With `CC[C@H](CC#N)OC(=O)N[C@@H](C)c1cccc(NC(=O)Nc2ccc(-c3cnco3)c(OC)c2)c1` [AVN944], the viability inhibition with HCT116 [1] (genotype: MTA1-KO, 16 nM) is 5.16%; in the assay on HCT116 [1] (genotype: MTA1-KO, 80 nM), 4.61%; in the assay with HCT116 [1] (genotype: MTA1-KO, 400 nM) it was 58.7%; in the assay on HCT116 [1] (genotype: MTA1-KO, 2000 nM), 80.9%; in the assay on HCT116 [1] (genotype: MTA1-KO, 10000 nM) it was 93.7%; in the assay on HCT116 [1] (genotype: control, 16 nM) it was -0.119%. Besides, the viability inhibition turned out to be 29.5% in the assay on HCT116 [1] (genotype: control, 80 nM); 75.2% with HCT116 [1] (genotype: control, 400 nM); 92.9% with HCT116 [1] (genotype: control, 2000 nM); 96.3% with HCT116 [1] (genotype: control, 10000 nM). The IC50 stood at 0.311 µM with HCT116 [2] (genotype: MTA1-KO) and 0.131 µM in the assay on HCT116 [2] (genotype: control).
In the case of `Nc1ccc(-c2ccc3ncc4ccc(=O)n(-c5cccc(C(F)(F)F)c5)c4c3c2)cn1` [Torin 2], the viability inhibition is -2.56% in the assay on HCT116 [1] (genotype: MTA1-KO, 16 nM); 37.4% in the assay on HCT116 [1] (genotype: MTA1-KO, 80 nM); 77.4% in the assay with HCT116 [1] (genotype: MTA1-KO, 400 nM); 88.6% with HCT116 [1] (genotype: MTA1-KO, 2000 nM); 104% with HCT116 [1] (genotype: MTA1-KO, 10000 nM); -9.67% in the assay with HCT116 [1] (genotype: control, 16 nM). Moreover, the viability inhibition in the assay on HCT116 [1] (genotype: control, 80 nM) was found to be 18.6%; in the assay on HCT116 [1] (genotype: control, 400 nM) it was 72.5%; with HCT116 [1] (genotype: control, 2000 nM) it was 87%; in the assay on HCT116 [1] (genotype: control, 10000 nM), 108%. Besides, the IC50 in the assay with HCT116 [2] (genotype: MTA1-KO) stood at 0.134 µM; in the assay on HCT116 [2] (genotype: control), 0.289 µM.
Consider `Cc1c(C(=O)N2CCOc3ccc(-c4ccc(N)nc4)cc3C2)ccc(S(C)(=O)=O)c1F` [XL388], for which the viability inhibition in the assay on HCT116 [1] (genotype: MTA1-KO, 16 nM) is -7.29%; with HCT116 [1] (genotype: MTA1-KO, 80 nM) it was 5.97%; with HCT116 [1] (genotype: MTA1-KO, 400 nM) it was 0.224%; in the assay on HCT116 [1] (genotype: MTA1-KO, 2000 nM) it was 19%; in the assay with HCT116 [1] (genotype: MTA1-KO, 10000 nM), 74.8%; in the assay with HCT116 [1] (genotype: control, 16 nM) it was 0.193%. The viability inhibition with HCT116 [1] (genotype: control, 80 nM) is -2.53%; in the assay with HCT116 [1] (genotype: control, 400 nM), -7.3%; with HCT116 [1] (genotype: control, 2000 nM), -11.7%; with HCT116 [1] (genotype: control, 10000 nM), 47%. Besides, the IC50 with HCT116 [2] (genotype: MTA1-KO) is 4.64 µM; in the assay with HCT116 [2] (genotype: control), more than 10 µM.
For the molecule `CC(=O)N=c1sc(S(N)(=O)=O)nn1C` [Methazolamide], the viability inhibition with HCT116 [1] (genotype: MTA1-KO, 16 nM) is -8.89%; in the assay on HCT116 [1] (genotype: MTA1-KO, 80 nM), -28.2%; in the assay with HCT116 [1] (genotype: MTA1-KO, 400 nM), -14.6%; in the assay on HCT116 [1] (genotype: MTA1-KO, 2000 nM) it was -23.2%; in the assay with HCT116 [1] (genotype: MTA1-KO, 10000 nM), -21.9%; in the assay on HCT116 [1] (genotype: control, 16 nM), 6.26%. Besides, the viability inhibition with HCT116 [1] (genotype: control, 80 nM) was -6.63%; in the assay on HCT116 [1] (genotype: control, 400 nM) it was -3.65%; in the assay on HCT116 [1] (genotype: control, 2000 nM), -3.04%; in the assay with HCT116 [1] (genotype: control, 10000 nM) it was -0.243%. Also, the IC50 in the assay with HCT116 [2] (genotype: MTA1-KO) and in the assay with HCT116 [2] (genotype: control) was more than 10 µM each time.
Turning to `CO[C@H]1C[C@@H]2CC[C@@H](C)[C@@](O)(O2)C(=O)C(=O)N2CCCC[C@H]2C(=O)O[C@H]([C@H](C)C[C@@H]2CC[C@@H](OC(=O)C(C)(CO)CO)[C@H](OC)C2)CC(=O)[C@H](C)/C=C(\C)[C@@H](O)[C@@H](OC)C(=O)[C@H](C)C[C@H](C)/C=C/C=C/C=C/1C` [Temsirolimus], the viability inhibition in the assay on HCT116 [1] (genotype: MTA1-KO, 16 nM) worked out at 56.3%; with HCT116 [1] (genotype: MTA1-KO, 80 nM), 49.2%; with HCT116 [1] (genotype: MTA1-KO, 400 nM) it was 48.4%; in the assay on HCT116 [1] (genotype: MTA1-KO, 2000 nM), 46.7%; in the assay on HCT116 [1] (genotype: MTA1-KO, 10000 nM), 60.5%; with HCT116 [1] (genotype: control, 16 nM), 12%. The viability inhibition with HCT116 [1] (genotype: control, 80 nM) is 10.7%; in the assay on HCT116 [1] (genotype: control, 400 nM), 8.05%; in the assay with HCT116 [1] (genotype: control, 2000 nM) it was -1.62%; in the assay with HCT116 [1] (genotype: control, 10000 nM), 46.1%. Moreover, the IC50 with HCT116 [2] (genotype: MTA1-KO) is less than 0.016 µM; with HCT116 [2] (genotype: control), more than 10 µM.
In the case of `NC(=O)N/N=C/c1ccc([N+](=O)[O-])o1` [Furacilin], the viability inhibition in the assay on HCT116 [1] (genotype: MTA1-KO, 16 nM) was -10.7%; with HCT116 [1] (genotype: MTA1-KO, 80 nM), -2.24%; in the assay with HCT116 [1] (genotype: MTA1-KO, 400 nM), -4.15%; in the assay on HCT116 [1] (genotype: MTA1-KO, 2000 nM), 1.42%; with HCT116 [1] (genotype: MTA1-KO, 10000 nM), 5.25%; in the assay with HCT116 [1] (genotype: control, 16 nM), 6.06%. Moreover, the viability inhibition with HCT116 [1] (genotype: control, 80 nM) is 11.2%; with HCT116 [1] (genotype: control, 400 nM) it was 22.1%; in the assay with HCT116 [1] (genotype: control, 2000 nM), 21.4%; in the assay with HCT116 [1] (genotype: control, 10000 nM), -6.53%. For the same molecule, the IC50 in the assay on HCT116 [2] (genotype: MTA1-KO) and with HCT116 [2] (genotype: control) was more than 10 µM each time.
On to `CC(=NNC(=S)N1CCC1)c1ccccn1`, for which the viability inhibition in the assay on HCT116 [1] (genotype: MTA1-KO, 16 nM) amounted to 113%; in the assay with HCT116 [1] (genotype: MTA1-KO, 80 nM) it was 110%; in the assay with HCT116 [1] (genotype: MTA1-KO, 400 nM), 111%; in the assay with HCT116 [1] (genotype: MTA1-KO, 2000 nM), 108%; with HCT116 [1] (genotype: MTA1-KO, 10000 nM) it was 107%; with HCT116 [1] (genotype: control, 16 nM) it was 107%. Besides, the viability inhibition with HCT116 [1] (genotype: control, 80 nM) was determined as 110%; with HCT116 [1] (genotype: control, 400 nM), 95.8%; in the assay on HCT116 [1] (genotype: control, 2000 nM), 105%; with HCT116 [1] (genotype: control, 10000 nM), 111%. In addition, the IC50 in the assay on HCT116 [2] (genotype: MTA1-KO) and in the assay with HCT116 [2] (genotype: control) was less than 0.016 µM throughout.
`N#C/C(=C\c1cn(-c2ccccc2)c2ccccc12)C(=O)O` [UK5099]: the viability inhibition in the assay with HCT116 [1] (genotype: MTA1-KO, 16 nM) is 12.9%; with HCT116 [1] (genotype: MTA1-KO, 80 nM), -2.58%; in the assay with HCT116 [1] (genotype: MTA1-KO, 400 nM), -5.75%; with HCT116 [1] (genotype: MTA1-KO, 2000 nM) it was -0.99%; in the assay with HCT116 [1] (genotype: MTA1-KO, 10000 nM) it was 14%; in the assay with HCT116 [1] (genotype: control, 16 nM) it was 8.77%. Besides, the viability inhibition came to 3.74% in the assay on HCT116 [1] (genotype: control, 80 nM); 4.2% in the assay on HCT116 [1] (genotype: control, 400 nM); 20.2% in the assay on HCT116 [1] (genotype: control, 2000 nM); 40% with HCT116 [1] (genotype: control, 10000 nM). Further, the IC50 with HCT116 [2] (genotype: MTA1-KO) and with HCT116 [2] (genotype: control) was more than 10 µM throughout.
